Here are results for eight compounds from PubChem BioAssay AID342 (DTP/NCI, 2004).

Where “and” joins values, the source holds several entries; their conditions need not be identical. Equal values may be shown once.

This test concerns Swiss mice, Sarcoma 180 sc, mean tumor weight T/C. Put plainly: NCI In Vivo Anticancer Drug Screen. Data for tumor model Sarcoma 180 (subcutaneous) in Swiss mice. To be noted: endpoint: mean tumor weight, higher = larger tumour. Here is the method: The antitumor activity of compounds was measured in mice bearing transplantable tumors. Survival or tumor size were measured and the results are expressed as the measurement made in the treated group (T) divided by the measurement made in the vehicle treated control group (C). The tumor model used in this assay is Sarcoma 180 (subcutaneous) in Swiss mice

The mark [1] stands for this setting: dose: 25.0 mg/kg/injection, schedule: Q01DX007 (ip), vehicle: carboxymethylcellulose (CMC).

With `COc1ccc2c3c([nH]c2c1)[C@H]1C[C@H]2[C@H](C[C@@H](O)[C@H](OC)[C@H]2CO)CN1CC3`, the T/C is 120 % of control (dose: 0.5 mg/kg/injection, schedule: Q01DX007 (ip), vehicle: saline); 121 % of control (dose: 1.0 mg/kg/injection, schedule: Q01DX007 (ip), vehicle: saline); 95 % of control (dose: 2.0 mg/kg/injection, schedule: Q01DX007 (ip), vehicle: saline); 94 % of control (dose: 4.0 mg/kg/injection, schedule: Q01DX007 (ip), vehicle: saline); 102 % of control (dose: 8.0 mg/kg/injection, schedule: Q01DX007 (ip), vehicle: saline); 77 % of control (dose: 16.0 mg/kg/injection, schedule: Q01DX007 (ip), vehicle: saline). In addition, the T/C (dose: 32.0 mg/kg/injection, schedule: Q01DX007 (ip), vehicle: saline) was 102 % of control.
`O=c1[nH]cc(C(F)(F)F)c(=O)[nH]1`: the T/C (dose: 200.0 mg/kg/injection, schedule: Q01DX007 (ip), vehicle: saline) was 63 % of control and the T/C (dose: 300.0 mg/kg/injection, schedule: Q01DX007 (ip), vehicle: saline) is 73 % of control.
Turning to `CC1(C)CCC2(C(=O)O)CCC3=C(C(CCl)CC4C3(C)CCC3C4(C)CC(O)C(O)C3(C)C(=O)O)C2C1` (centres undefined), the T/C is, setting by setting: under setting [1], 108 % of control; (dose: 50.0 mg/kg/injection, schedule: Q01DX007 (ip), vehicle: carboxymethylcellulose (CMC)) 80 % of control; (dose: 75.0 mg/kg/injection, schedule: Q01DX007 (ip), vehicle: carboxymethylcellulose (CMC)) 157 % of control; (dose: 125.0 mg/kg/injection, schedule: Q01DX007 (ip), vehicle: carboxymethylcellulose (CMC)) 70 % of control.
Regarding `Cc1n[nH]c(=O)[nH]c1=O`, the T/C was 95 % of control (dose: 500.0 mg/kg/injection, schedule: Q01DX007 (ip), vehicle: other) and 83 % of control (dose: 750.0 mg/kg/injection, schedule: Q01DX007 (ip), vehicle: other).
For the compound `CO[C@H]1CC[C@@]2(C)[C@@H](CC[C@H]3[C@@H]4C[C@H](O)C[C@@]4(C)CC[C@@H]32)C1`, the T/C was 121 % of control (dose: 0.01 mg/kg/injection, schedule: Q#A X014 (sc), vehicle: olive oil, sesame oil, peanut oil); 72 % of control (dose: 0.05 mg/kg/injection, schedule: Q#A X014 (sc), vehicle: olive oil, sesame oil, peanut oil); 112 % of control (dose: 0.25 mg/kg/injection, schedule: Q#A X014 (sc), vehicle: olive oil, sesame oil, peanut oil); 95 % of control (dose: 50.0 mg/kg/injection, schedule: Q#A X014 (ip), vehicle: distilled water + alcohol).
As to `CC(O)C(NCNC(=O)C1=C(O)C2(O)C(=O)C3=C(O)c4c(O)cccc4C(C)(O)C3CC2C(N(C)C)C1=O)C(=O)O` (centres undefined), the T/C (dose: 250.0 mg/kg/injection, schedule: Q#A X014 (ip), vehicle: saline) is 44 % of control and 46 % of control.
Turning to `CC(NC(=O)C1(N)CCCC1)C(=O)O` (centres undefined), the T/C was 91 % of control under setting [1]; 21 % of control (dose: 100.0 mg/kg/injection, schedule: Q01DX007 (ip), vehicle: carboxymethylcellulose (CMC)); 36 % of control (dose: 222.0 mg/kg/injection, schedule: Q01DX007 (ip), vehicle: steriod suspending solution); 25 % of control (dose: 333.0 mg/kg/injection, schedule: Q01DX007 (ip), vehicle: steriod suspending solution).
In the case of `CN(N=O)C(N)=O`, the T/C is 45 % of control (dose: 1.4 mg/kg/injection, schedule: Q#A X014 (ip), vehicle: carboxymethylcellulose (CMC)); 63 % of control (dose: 1.5 mg/kg/injection, schedule: Q#A X014 (ip), vehicle: carboxymethylcellulose (CMC)); 53 % of control (dose: 2.81 mg/kg/injection, schedule: Q#A X014 (ip), vehicle: carboxymethylcellulose (CMC)); 73 % of control (dose: 3.0 mg/kg/injection, schedule: Q#A X014 (ip), vehicle: carboxymethylcellulose (CMC)); 27 % of control (dose: 5.62 mg/kg/injection, schedule: Q#A X014 (ip), vehicle: carboxymethylcellulose (CMC)); 41 % of control (dose: 6.0 mg/kg/injection, schedule: Q#A X014 (ip), vehicle: carboxymethylcellulose (CMC)). The T/C (dose: 7.5 mg/kg/injection, schedule: Q01DX007 (ip), vehicle: carboxymethylcellulose (CMC)) was 67 % of control; the T/C (dose: 9.6 mg/kg/injection, schedule: Q01DX007 (ip), vehicle: carboxymethylcellulose (CMC)) is 65 % of control; the T/C (dose: 11.25 mg/kg/injection, schedule: Q01DX007 (ip), vehicle: carboxymethylcellulose (CMC)) was 73 % of control; the T/C (dose: 12.0 mg/kg/injection, schedule: Q01DX007 (ip), vehicle: carboxymethylcellulose (CMC)) was 49 % of control; the T/C (dose: 12.0 mg/kg/injection, schedule: Q#A X014 (ip), vehicle: carboxymethylcellulose (CMC)) is 35 % of control; the T/C (dose: 15.0 mg/kg/injection, schedule: Q01DX007 (ip), vehicle: carboxymethylcellulose (CMC)) was 30 % of control. Besides, the T/C by setting is: (dose: 16.0 mg/kg/injection, schedule: Q01DX007 (ip), vehicle: carboxymethylcellulose (CMC)) 51 % of control; (dose: 22.5 mg/kg/injection, schedule: Q01DX007 (ip), vehicle: carboxymethylcellulose (CMC)) 14 % of control; (dose: 24.0 mg/kg/injection, schedule: Q01DX007 (ip), vehicle: carboxymethylcellulose (CMC)) 31 % of control.

Usually T/C stands for the result in the treated group divided by that in the control group, in per cent.
